Test results: US10072055B2, “Anti-inflammatory pharmaceutical products” (Resother Pharma APS, priority 2011, dated 2018)
“Also recorded” adds a separate entry of the source. Ends that are not written are not given here.

Experiments:
[1] = system: PMN interaction to an activated HUVEC monolayer; assay: Flow chamber assay: PMN interaction with activated HUVEC monolayer (capture, rolling, adhesion); type: cell-based, human; conditions: for inhibition of PMN interaction with HUVECs (capture, adhesion, rolling): 10 μM peptide, 10 min at 37° C., flow 8 min at 1 dyne/cm^2; for inhibition of PMN/neutrophil-endothelium interactions in flow chamber: concentration not given; for lowest concentration with activity on PMN-HUVEC interactions: flow chamber model
Excerpt: FIGS. 2A-2C are a series of charts reporting data from flow chamber analysis to determine the inhibitory capability of five polypeptides of the present disclosure (Pep57 (SEQ ID NO:12); Pep59 (SEQ ID NO:13), Pep60 (SEQ ID NO:15), Pep83 (SEQ ID NO:16) and Pep84 (SEQ ID NO:14)) and Ac-ANAX1(2-26)-OH to reduce PMN interaction to an activated HUVEC monolayer.
FIGS. 4A-4C are a series of bar charts reporting percent inhibition provided by three polypeptides (UGP022 (SEQ ID NO:5); UGP025 (SEQ ID NO:7) and UGP026 (SEQ ID NO:8)) of the present disclosure, at different concentrations, on three different parameters (capture—FIG. 4A; rolling—FIG. 4B; and adhesion—FIG. 4C).
FIGS. 2A-2C are a series of charts reporting data from flow chamber analysis to determine the inhibitory capability of five polypeptides (Pep57 (SEQ ID NO: 12); Pep59 (SEQ ID NO: 13), Pep60 (SEQ ID NO: 15), Pep83 (SEQ ID NO: 16) and Pep84 (SEQ ID NO: 14)) of the present disclosure and Ac-ANAX1(2-26)-OH to reduce PMN interaction to an activated HUVEC monolayer. PMNs (5×10^6) were incubated with 10 μM of the various peptides for 10 min at 37° C. The PMNs were then flowed for 8 min at 1 dyne/cm^2, prior to quantifying the degree of PMN interaction with the HUVECs, both as PMN capture (FIG. 2A), adhesion (FIG. 2B) and rolling (FIG. 2C). […] Data are mean±SEM of 3 independent experiments (with distinct PMN and HUVEC preparations); *=P<0.05 vs. CT group, data analyzed using one way ANOVA.
FIGS. 4A-4C make a direct comparison of the activities of UGP022 (SEQ ID NO:5), UGP025 (SEQ ID NO: 7) and UGP026 (SEQ ID NO: 8) in the flow chamber assay, presenting the degree of inhibition on the three parameters under analysis (capture (FIG. 4A); rolling (FIG. 4B) and adhesion (FIG. 4C)).

FPR2 [2] = target: T1, FPR2 (Homo sapiens, UniProt P25090); assay: p-ERK activation in HEK-FPR2 cells (western blot, densitometry p-ERK vs t-ERK); type: cell-based; design: expressed in transfected cells; host or cells: HEK cells (HEK-FPR2); conditions: for p-ERK activation through the FPR2 receptor: 10 μM peptide, 8 minutes, HEK-FPR2 cells
T1 sequence (P25090 1-351): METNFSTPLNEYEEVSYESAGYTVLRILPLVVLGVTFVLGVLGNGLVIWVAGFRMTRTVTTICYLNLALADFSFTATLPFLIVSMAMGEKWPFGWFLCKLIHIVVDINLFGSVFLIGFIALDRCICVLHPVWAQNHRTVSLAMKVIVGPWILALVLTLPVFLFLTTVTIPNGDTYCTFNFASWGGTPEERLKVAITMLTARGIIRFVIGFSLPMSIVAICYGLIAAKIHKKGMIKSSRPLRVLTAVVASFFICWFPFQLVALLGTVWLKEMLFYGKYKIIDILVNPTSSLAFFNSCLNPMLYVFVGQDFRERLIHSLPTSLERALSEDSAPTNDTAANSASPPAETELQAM
Excerpt: FIG. 1A and FIG. 1B show western blotting analysis comparing p-ERK activation potency through the FPR2 receptor for five polypeptides of the present disclosure (Pep57 (SEQ ID NO:12); Pep59 (SEQ ID NO:13), Pep60 (SEQ ID NO:15), Pep83 (SEQ ID NO:16) and Pep84 (SEQ ID NO:14)) relative to Ac-ANAX1(2-26)-OH. FIG. 1A is a representative blot for p-ERK and t-ERK.
The experiments whose results are reported in FIG. 1A and FIG. 1B were directed to determining which of the five polypeptides tested (Pep57 (SEQ ID NO: 12); Pep59 (SEQ ID NO: 13), Pep60 (SEQ ID NO: 15), Pep83 (SEQ ID NO: 16) and Pep84 (SEQ ID NO: 14)) best activated the p-ERK through the FPR2 receptor, similar to Ac-ANAX1(2-26)-OH, the parent peptide. The HEK-FPR2 cells were co-incubated with 10 μM of the novel Ac2-26 peptides for 8 minutes following which the cell were lysed and resuspended in cell lysis solution. Then 100 ng of total protein were loaded on to 10% polyacrylamide gel. Following electrophoresis, transfer and blocking the membrane was first probed with an anti p-ERK antibody and then stripped and reprobed with and anti total ERK antibody. […] Data presented as mean and SEM of 3 distinct experiments with one way ANOVA employed for statistical analysis. (*=P<0.05 vs. CT).

[3] = system: leukocyte recruitment into the inflamed airpouch; assay: Mouse IL-1β air-pouch inflammation model (leukocyte migration); type: in vivo; conditions: for inhibition of leukocyte infiltration/recruitment in air-pouch model: mouse air-pouch
Experimental: FIG. 3A and FIG. 3B are a series of bar charts comparing the anti-inflammatory effects of three polypeptides (Pep57 (SEQ ID NO:12); Pep59 (SEQ ID NO:13) and Pep84 (SEQ ID NO:14)) of the present disclosure versus a vehicle-only control.
FIG. 3A and FIG. 3B are a series of bar charts comparing the anti-inflammatory effects of three polypeptides (Pep57 (SEQ ID NO: 12); Pep59 (SEQ ID NO: 13) and Pep84 (SEQ ID NO: 14)) of the present disclosure versus a vehicle-only control. Mice received 200 μl i.v. of saline+DMSO or a dose of 50 μg per animal of one of the three Ac2-26 derived peptides, immediately before the local injection of mouse IL-1β into 6-day-old airpouches. The extent of cell migration was determined 4 h later, following airpouch washing and staining of migrated cells with Gr1 marker. […] Data are mean±SEM of 5 mice per group. *P<0.05 vs. vehicle group (one way ANOVA).

FPR1 = target: T2, FPR1 (Homo sapiens, UniProt P21462); assay: FPR1 activation (ERK phosphorylation and intracellular calcium fluxes); type: cell-based
T2 sequence (P21462 1-350): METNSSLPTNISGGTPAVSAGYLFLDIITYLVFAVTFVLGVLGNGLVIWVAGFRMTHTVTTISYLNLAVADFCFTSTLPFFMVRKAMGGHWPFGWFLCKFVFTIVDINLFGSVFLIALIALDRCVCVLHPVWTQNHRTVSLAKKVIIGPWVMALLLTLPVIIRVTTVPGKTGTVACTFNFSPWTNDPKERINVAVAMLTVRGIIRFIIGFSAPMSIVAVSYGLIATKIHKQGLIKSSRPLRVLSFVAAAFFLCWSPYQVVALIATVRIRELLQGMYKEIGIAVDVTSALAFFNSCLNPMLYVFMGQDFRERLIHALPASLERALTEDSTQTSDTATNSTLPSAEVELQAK

FPR2 [4] = target: T1, FPR2; assay: FPR2 activation (ERK phosphorylation and intracellular calcium fluxes); type: cell-based
FPR2 [5] = target: T1, FPR2; assay: Binding affinity to FPR2
[6] = 50 μg per animal i.v., IL-1β, 4 h

Row | activation of FPR1 (FPR1) | activation of FPR2 (FPR2 [4]) | Substance | inhibition of PMN interaction with HUVECs (capture, adhesion, rolling) [1] | downstream signaling via the FPR family of receptors (FPR2 [2]) | p-ERK activation through the FPR2 receptor (FPR2 [2]) | inhibition of PMN/neutrophil-endothelium interactions in flow chamber [1] | lowest concentration with activity on PMN-HUVEC interactions [1] | GR1+ve cells in air-pouch (FIG. 3B) [3, 6] | migrated cell count in air-pouch (FIG. 3A) [3, 6] | inhibition of leukocyte infiltration/recruitment in air-pouch model [3] | binding affinity to FPR2 (FPR2 [5])
1 | could activate both FPR1 and FPR2 | could activate both FPR1 and FPR2 | ANXA1(2-50)-OH (AMVSEFLKQAWFIENEEQEYVQTVKSSKGGPGSAVSPYPTFNPSSDVAA-OH; ends and bridges not checked) [UGP024, 49 amino acids; amino acids 2-50 of human Annexin 1] |  |  |  | more potent than Ac-ANXA1(2-26)-OH and full length ANXA1 |  |  |  | more potent than Ac-ANXA1(2-26)-OH and full length ANXA1; also recorded: possess anti-inflammatory activities in an in vivo assay of leukocyte recruitment | 
2 | could activate both FPR1 and FPR2 | could activate both FPR1 and FPR2 | ANXA1(2-50) Gly51-OH (AMVSEFLKQAWFIENEEQEYVQTVKSSKGGPGSAVSPYPTFNPSSDVAAG-OH; ends and bridges not checked) [UGP021, 50 amino acids; amino acids 2-50 of human Annexin 1, position 50 of the polypeptide is glycine] |  |  |  | more potent than Ac-ANXA1(2-26)-OH and full length ANXA1 |  |  |  | more potent than Ac-ANXA1(2-26)-OH and full length ANXA1; also recorded: possess anti-inflammatory activities in an in vivo assay of leukocyte recruitment | binding affinity to the FPR2 in the nanomolar range

Further lines, the substance ahead of its results:

Row | Substance | activation of FPR1 (FPR1) | activation of FPR2 (FPR2 [4]) | inhibition of PMN interaction with HUVECs (capture, adhesion, rolling) [1] | downstream signaling via the FPR family of receptors (FPR2 [2]) | p-ERK activation through the FPR2 receptor (FPR2 [2]) | inhibition of PMN/neutrophil-endothelium interactions in flow chamber [1] | lowest concentration with activity on PMN-HUVEC interactions [1] | GR1+ve cells in air-pouch (FIG. 3B) [3, 6] | migrated cell count in air-pouch (FIG. 3A) [3, 6] | inhibition of leukocyte infiltration/recruitment in air-pouch model [3] | binding affinity to FPR2 (FPR2 [5])
3 | Asp11,22-Ac-ANAX1(2-26)-OH (Ac-AMVSEFLKQDWFIENEEQEYDQTVK-OH) [Pep59, 25 amino acids; Annexin 1 (2-26), residues 10 and 21 aspartic acid, residue 1 acetylated] |  |  | did not display any inhibitory properties in this assay | lead to downstream signaling via the FPR family of receptors | p-ERK activated was observed to be highest; also recorded: very high p-ERK activation potential |  |  |  |  |  | 
4 | Ile11,22-Ac-ANAX1(2-26)-OH (Ac-AMVSEFLKQIWFIENEEQEYIQTVK-OH) [Pep83, 25 amino acids; Annexin 1 (2-26), residues 10 and 21 isoleucine, residue 1 acetylated] |  |  | only Pep57 (SEQ ID NO: 12), Pep60 (SEQ ID NO: 15) and Pep84 (SEQ ID NO: 14) display inhibitory properties |  |  |  |  |  |  |  | 
5 | Glu11,22-Ac-ANAX1(2-26)-OH (Ac-AMVSEFLKQEWFIENEEQEYEQTVK-OH) [Pep60, 25 amino acids; Annexin 1 (2-26), residues 10 and 21 glutamic acid, residue 1 acetylated] |  |  | displayed potent inhibitory properties similar to those displayed by the parent Ac2-26 peptide |  | not that effective to phosphorylate ERK |  |  |  |  |  | 
6 | Leu11,22-Ac-ANAX1(2-26)-OH (Ac-AMVSEFLKQLWFIENEEQEYLQTVK-OH) [Pep57, 25 amino acids; Annexin 1 (2-26), residues 10 and 21 leucine, residue 1 acetylated] |  |  | displayed inhibitory properties similar to those observed in the parent Ac2-26 peptide | lead to downstream signaling via the FPR family of receptors | p-ERK activated was observed to be highest | significantly inhibited PMN-HUVEC interactions | 10 pM | losing this observed effect | display anti-inflammatory properties | significantly inhibiting leukocyte infiltration; also recorded: displayed inhibitory potential in the model | 
7 | Ac-ANAX1(2-26)-OH (Ac-AMVSEFLKQAWFIENEEQEYVQTVK-OH) [Ac2-26, parent peptide; mimics the 2nd to the 26th amino acids of the Annexin A1 N-terminal region, N-terminally acetylated, reference compound] |  |  | inhibitory properties |  | activation caused by the parent Ac2-26 |  |  |  |  |  | 
8 | Met11,22-Ac-ANAX1(2-26)-OH (Ac-AMVSEFLKQMWFIENEEQEYMQTVK-OH) [Pep84] |  |  | displayed inhibitory properties similar to those observed in the parent Ac2-26 peptide | lead to downstream signaling via the FPR family of receptors | p-ERK activated was observed to be highest | significantly inhibited PMN-HUVEC interactions | 10 pM |  | display anti-inflammatory properties | inhibiting this inflammatory readout to a larger extent | 
